From patent US12709610B2, “Preparation method for hepatitis B virus nucleocapsid inhibitor” (Shanghai Zhimeng Biopharma, Inc., priority 2021, dated 2026)

Assay: Ames assay (genotoxicity)
Assay type: cell-based
Conditions: synthetic intermediates of the last three steps

SMILES | Ames assay result
NC(=O)Nc1ccc(CCN2C(=O)CO[C@@H]2c2cn(-c3ccc(Br)cc3)nc2-c2ccc(F)cc2)cc1 [Compound 17] | negative
NC(=O)Nc1ccc(CCN2C(=O)CO[C@@H]2c2cn(-c3ccc(Br)cc3)nc2-c2ccc(F)cc2)cc1I [Compound 9] | negative
